Data taken from patent US11351164B2, “Inhibitors of indoleamine 2,3-dioxygenase and methods of their use” (BRISTOL-MYERS SQUIBB COMPANY, priority 2016, dated 2022).

target: T1, human IDO1 (Homo sapiens, UniProt P14902); assay: IDO inhibition assay in HEK293 cells stably expressing human IDO1 (kynurenine, Ehrlich reagent, absorbance 490 nm); assay type: cell-based; settings: 20 hours incubation, read-out: IDO1 HEK Human IC50
T1 construct: expressed in transfected cells
Description: HEK293 cells were transfected with a pCDNA-based mammalian expression vector harboring human IDO1 cDNA (NM 002164.2) by electroporation. They were cultured in medium (DMEM with 10% FBS) containing 1 mg/ml G418 for two weeks. Clones of HEK293 cells that stably expressed human IDO1 protein were selected and expanded for IDO inhibition assay. The human IDO1/HEK293 cells were seeded at 10,000 cells per 50 μL per well with RPMI/phenol red free media contains 10% FBS in a 384-well black wall clear bottom tissue culture plate (Matrix Technologies LLC) 100 nL of certain concentration of compound was then added to each well using ECHO liquid handling systems. The cells were incubated for 20 hours in 37° C. incubator with 5% CO2. The compound treatments were stopped by adding trichloroacetic acid (Sigma-Aldrich) to a final concentration at 0.2%. The cell plate was further incubated at 50° C. for 30 minute. The equal volume supernatant ([…]) and 0.2% (w/v) Ehrlich reagent (4-dimethylaminobenzaldehyde, Sigma-Aldrich) in glacial acetic acid were mixed in a new clear bottom 384-well plate. This plate was then incubated at room temperature for 30 minute. The absorbance at 490 nm was measured on Envision plate reader. Compound IC50 values were calculated using the counts of 500 nM of a reference standard treatment as one hundred percent inhibition, and counts of no compound but DMSO treatment as zero percent inhibition.

T1 sequence (P14902 whole entry): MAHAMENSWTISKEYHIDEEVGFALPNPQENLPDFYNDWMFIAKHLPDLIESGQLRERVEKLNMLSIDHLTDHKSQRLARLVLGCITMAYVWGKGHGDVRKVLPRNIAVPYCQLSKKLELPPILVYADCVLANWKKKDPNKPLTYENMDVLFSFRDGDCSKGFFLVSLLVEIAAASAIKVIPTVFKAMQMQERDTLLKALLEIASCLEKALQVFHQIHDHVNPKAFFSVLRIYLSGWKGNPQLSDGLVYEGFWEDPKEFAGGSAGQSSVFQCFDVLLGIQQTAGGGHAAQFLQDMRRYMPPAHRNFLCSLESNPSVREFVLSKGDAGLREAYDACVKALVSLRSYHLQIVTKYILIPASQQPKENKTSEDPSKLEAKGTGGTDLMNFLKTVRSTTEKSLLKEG

SMILES | IC50 [nM]
CCC(Nc1nnc(-c2ccc(OC)cc2)o1)[C@H]1CC[C@@H](c2ccnc3ccc(F)cc32)CC1 (mixture of isomers) [Example 48, N-(1-((1s,4s)-4-(6-Fluoroquinolin-4-yl)cyclohexyl)propyl)-5-(4-methoxyphenyl)-1,3,4-oxadiazol-2-amine] | 3.6
CCC(Nc1nnc(-c2ccc(OC)cc2)o1)[C@H]1CC[C@@H](c2ccnc3ccc(F)cc32)CC1 (single isomer, unassigned) [Example 49-1, N-(1-((1s,4s)-4-(6-Fluoroquinolin-4-yl)cyclohexyl)propyl)-5-(4-methoxyphenyl)-1,3,4-oxadiazol-2-amine] | 0.9
CCC(Nc1nnc(-c2ccc(OC)cc2)o1)[C@H]1CC[C@@H](c2ccnc3ccc(F)cc32)CC1 (single isomer, unassigned) [Example 49-2, N-(1-((1s,4s)-4-(6-Fluoroquinolin-4-yl)cyclohexyl)propyl)-5-(4-methoxyphenyl)-1,3,4-oxadiazol-2-amine] | 177
CCC(c1nnc(Nc2ccc(OC)cc2)[nH]1)C1CCC(c2ccnc3ccc(F)cc23)CC1 (single isomer, unassigned) [Example 55, 5-(1-(4-(6-Fluoroquinolin-4-yl)cyclohexyl)propyl)-N-(4-methoxyphenyl)-4H-1,2,4-triazol-3-amine] | 2000
CCC(c1nnc(Nc2ccc(OC)cc2)[nH]1)C1CCC(c2ccnc3ccc(F)cc23)CC1 (single isomer, unassigned) [Example 56, 5-(1-(4-(6-Fluoroquinolin-4-yl)cyclohexyl)propyl)-N-(4-methoxyphenyl)-4H-1,2,4-triazol-3-amine] | 18.4
CCOCC(Nc1nnc(-c2ccc(OC)cc2)o1)[C@H]1CC[C@@H](c2ccnc(F)c2C)CC1 (single isomer, unassigned) [Example 57-2, N-(2-Ethoxy-1-((1s,4s)-4-(2-fluoro-3-methylpyridin-4-yl)cyclohexyl)ethyl)-5-(4-methoxyphenyl)-1,3,4-oxadiazol-2-amine] | 330
CCC(Nc1nnc(-c2ccc(F)cc2)o1)C1CCC(c2ccnc3ccc(C(F)(F)F)cc23)CC1 (single isomer, unassigned) [Example 61, 5-(4-fluorophenyl)-N-(1-((1s,4s)-4-(6-(trifluoromethyl)quinolin-4-yl)cyclohexyl)propyl)-1,3,4-oxadiazol-2-amine] | 811
CCC(Nc1nnc(-c2ccc(OC)cc2)o1)[C@H]1CC[C@@H](c2ccnc(F)c2C)CC1 (single isomer, unassigned) [Example 63-2, N-(1-((1s,4s)-4-(2-Fluoro-3-methylpyridin-4-yl)cyclohexyl)propyl)-5-(4-methoxyphenyl)-1,3,4-oxadiazol-2-amine] | 141
C[C@@H](c1nnc(-c2ccc(Cl)cc2)o1)[C@H]1CC[C@@H](c2ccnc3ccc(F)cc32)CC1 [Example 4, 2-(4-Chlorophenyl)-5-((R)-1-((1s,4s)-4-(6-fluoroquinolin-4-yl)cyclohexyl)ethyl)-1,3,4-oxadiazole] | 167
C[C@@H](c1nnc(-c2ccc(C#N)cc2)s1)[C@H]1CC[C@@H](c2ccnc3ccc(F)cc32)CC1 [Example 6, 4-(5-((R)-1-((1s,4S)-4-(6-Fluoroquinolin-4-yl)cyclohexyl)ethyl)-1,3,4-thiadiazol-2-yl)benzonitrile] | 37
C[C@@H](c1nnc(Nc2ccc(F)cc2)s1)[C@H]1CC[C@@H](c2ccnc3ccc(F)cc32)CC1 [Example 7, N-(4-Fluorophenyl)-5-((R)-1-((1s,4S)-4-(6-fluoroquinolin-4-yl)cyclohexyl)ethyl)-1,3,4-thiadiazol-2-amine] | 543
COc1ccc(-c2nnc([C@H](C)[C@H]3CC[C@@H](c4ccnc5ccc(F)cc54)CC3)[nH]2)cc1 [Example 9] | 192
Cc1ccc(-c2nnc([C@H](C)[C@H]3CC[C@@H](c4ccnc5ccc(F)cc54)CC3)[nH]2)cc1F [Example 10, 6-fluoro-4-((1S,4s)-4-((R)-1-(5-(3-fluoro-4-methylphenyl)-4H-1,2,4-triazol-3-yl)ethyl)cyclohexyl)quinoline] | 747
Cc1ccc(-c2nnc([C@H](C)[C@H]3CC[C@@H](c4ccnc5ccc(F)cc54)CC3)[nH]2)cc1 [Example 15, 6-fluoro-4-((1S,4s)-4-((R)-1-(5-p-tolyl-4H-1,2,4-triazol-3-yl)ethyl)cyclohexyl)quinoline] | 124
Cc1ccc(-c2nnc([C@H](C)[C@H]3CC[C@@H](c4ccnc5ccc(F)cc54)CC3)o2)cc1F [Example 16, 2-(3-fluoro-4-methylphenyl)-5-((R)-1-((1s,4S)-4-(6-fluoroquinolin-4-yl)cyclohexyl)ethyl)-1,3,4-oxadiazole] | 2000
C[C@@H](c1nnc(-c2ccc(F)c(Cl)c2)o1)[C@H]1CC[C@@H](c2ccnc3ccc(F)cc32)CC1 [Example 17, 2-(3-chloro-4-fluorophenyl)-((R)-1-((1s,4S)-4-(6-fluoroquinolin-4-yl)cyclohexyl)ethyl)-1,3,4-oxadiazole] | 239
COc1ccc(Nc2nnc([C@H](C)[C@H]3CC[C@@H](c4ccnc5ccc(F)cc54)CC3)[nH]2)cc1 [Example 20, 5-((R)-1-((1s,4s)-4-(6-Fluoroquinolin-4-yl)cyclohexyl)ethyl)-N-(4-methoxyphenyl)-4H-1,2,4-triazol-3-amine] | 135
C[C@@H](c1nnc(Nc2ccc(F)cc2)[nH]1)[C@H]1CC[C@@H](c2ccnc3ccc(F)cc32)CC1 [Example 21, N-(4-Fluorophenyl)-5-((R)-1-((1s,4s)-4-(6-fluoroquinolin-4-yl)cyclohexyl)ethyl)-4H-1,2,4-triazol-3-amine] | 68.2
C[C@@H](Nc1nnc(-c2ccc(Cl)cc2)o1)[C@H]1CC[C@@H](c2ccnc3ccc(F)cc32)CC1 [Example 23, 5-(4-Chlorophenyl)-N—((R)-1-((1s,4S)-4-(6-fluoroquinolin-4-yl)cyclohexyl)ethyl)-1,3,4-oxadiazol-2-amine] | 45.3
COc1ccc(-c2nnc(N[C@H](C)[C@H]3CC[C@@H](c4ccnc5ccc(F)cc54)CC3)o2)cc1 [Example 25, N—((R)-1-((1s,4S)-4-(6-Fluoroquinolin-4-yl)cyclohexyl)ethyl)-5-(4-methoxyphenyl)-1,3,4-oxadiazol-2-amine] | 9.6
COc1ccc(-c2nnc(N[C@H](C)[C@H]3CC[C@@H](c4ccnc5ccc(F)cc54)CC3)s2)cc1 [Example 26, N—((R)-1-((1s,4S)-4-(6-Fluoroquinolin-4-yl)cyclohexyl)ethyl)-5-(4-methoxyphenyl)-1,3,4-thiadiazol-2-amine] | 61.9
C[C@@H](Nc1nnc(C2CCCCC2)o1)[C@H]1CC[C@@H](c2ccnc3ccc(F)cc32)CC1 [Example 27, 5-Cyclohexyl-N—((R)-1-((1s,4S)-4-(6-fluoroquinolin-4-yl)cyclohexyl)ethyl)-1,3,4-oxadiazol-2-amine] | 9
C[C@@H](Nc1nnc(C2CC2)o1)[C@H]1CC[C@@H](c2ccnc3ccc(F)cc32)CC1 [Example 28, 5-cyclopropyl-N-((R)-1-((1s,4S)-4-(6-fluoroquinolin-4-yl)cyclohexyl)ethyl)-1,3,4-oxadiazol-2-amine] | 37.1
C[C@@H](Nc1nnc(-c2ccc(F)cc2)o1)[C@H]1CC[C@@H](c2ccnc3ccc(F)cc32)CC1 [Example 31, 5-(4-fluorophenyl)-N-((R)-1-((1s,4S)-4-(6-fluoroquinolin-4-yl)cyclohexyl)ethyl)-1,3,4-oxadiazol-2-amine] | 42.7
Cc1csc(-c2nnc(N[C@H](C)[C@H]3CC[C@@H](c4ccnc5ccc(F)cc54)CC3)o2)n1 [Example 32, N-((R)-1-((1s,4S)-4-(6-fluoroquinolin-4-yl)cyclohexyl)ethyl)-5-(4-methylthiazol-2-yl)-1,3,4-oxadiazol-2-amine] | 3.5
COc1ccc(-c2nnc(N[C@H](C)[C@H]3CC[C@@H](c4ccnc5ccc(F)cc54)CC3)o2)cn1 [Example 33, N-((R)-1-((1s,4S)-4-(6-fluoroquinolin-4-yl)cyclohexyl)ethyl)-5-(6-methoxypyridin-3-yl)-1,3,4-oxadiazol-2-amine] | 64.1
COCc1nnc(N[C@H](C)[C@H]2CC[C@@H](c3ccnc4ccc(F)cc43)CC2)o1 [Example 34, N-((R)-1-((1s,4S)-4-(6-fluoroquinolin-4-yl)cyclohexyl)ethyl)-5-(methoxymethyl)-1,3,4-oxadiazol-2-amine] | 38.6
C[C@@H](Nc1nnc(-c2ccc(-c3nccs3)cc2)o1)[C@H]1CC[C@@H](c2ccnc3ccc(F)cc32)CC1 [Example 35, N-((R)-1-((1s,4S)-4-(6-fluoroquinolin-4-yl)cyclohexyl)ethyl)-5-(4-(thiazol-2-yl)phenyl)-1,3,4-oxadiazol-2-amine] | 1000
COc1ccc(-c2csc(N[C@H](C)[C@H]3CC[C@@H](c4ccnc5ccc(F)cc54)CC3)n2)cc1 [Example 36, N—((R)-1-((1s,4S)-4-(6-Fluoroquinolin-4-yl)cyclohexyl)ethyl)-4-(4-methoxyphenyl)thiazol-2-amine] | 729
C[C@@H](Nc1nc(-c2ccc(Cl)cc2)cs1)[C@H]1CC[C@@H](c2ccnc3ccc(F)cc32)CC1 [Example 37, 4-(4-Chlorophenyl)-N—((R)-1-((1s,4S)-4-(6-fluoroquinolin-4-yl)cyclohexyl)ethyl)thiazol-2-amine] | 858
